Results as given in PubChem BioAssay (NCI).
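Exposure lasted 48 hours, with cells grown in 96-well plates and compounds tested at five concentrations. Abbreviation: GI50, concentration required for 50% inhibition of growth. The concentration for full growth arrest is given as TGI.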

Key:
Assay in all cases: DTP human tumour cell line panel, 48 h
CCRF-CEM leukemia = tested on: CCRF-CEM leukemia
SF-268 CNS = tested on: SF-268 CNS
HOP-92 NSCLC = tested on: HOP-92 NSCLC
SNB-19 CNS = tested on: SNB-19 CNS
SF-539 CNS = tested on: SF-539 CNS
DU-145 prostate = tested on: DU-145 prostate
M14 melanoma = tested on: M14 melanoma
RXF 393 renal = tested on: RXF 393 renal
ACHN renal = tested on: ACHN renal
NCI/ADR-RES ovarian = tested on: NCI/ADR-RES ovarian
HS 578T breast = tested on: HS 578T breast
OVCAR-3 ovarian = tested on: OVCAR-3 ovarian

| SMILES | TGI (CCRF-CEM leukemia) [µM] | TGI (SF-268 CNS) [µM] | TGI (HOP-92 NSCLC) [µM] | TGI (SNB-19 CNS) [µM] | TGI (SF-539 CNS) [µM] | TGI (DU-145 prostate) [µM] | TGI (M14 melanoma) [µM] | TGI (RXF 393 renal) [µM] | TGI (ACHN renal) [µM] | TGI (NCI/ADR-RES ovarian) [µM] | TGI (HS 578T breast) [µM] | TGI (OVCAR-3 ovarian) [µM] | GI50 (CCRF-CEM leukemia) [µM] | GI50 (HOP-92 NSCLC) [µM] | GI50 (DU-145 prostate) [µM] | GI50 (M14 melanoma) [µM] | GI50 (RXF 393 renal) [µM] | GI50 (OVCAR-3 ovarian) [µM] | GI50 (NCI/ADR-RES ovarian) [µM] | GI50 (HS 578T breast) [µM] |
| --- | --- | --- | --- | --- | --- | --- | --- | --- | --- | --- | --- | --- | --- | --- | --- | --- | --- | --- | --- | --- |
| Clc1cc(OCc2nn3c(Cc4ccccc4)nnc3s2)c(Cl)cc1OCc1nn2c(Cc3ccccc3)nnc2s1 | > 100 | > 100 | 61.2 | 95.8 | > 100 | > 100 | > 100 | 75.4 | > 100 | > 100 | > 100 | > 100 |  |  |  |  |  |  |  |  |
| c1csc(-c2ccc(CNc3c4ccccc4nc4ccccc34)cc2)c1 | 3.91 |  | 2.81 |  |  | 3.07 | 3.4 | 2.73 |  |  |  | 2.97 | 1.28 | 1.26 | 1.65 | 1.75 | 1.25 | 1.58 |  |  |
| CSCC(CO)NC(=O)/C=C/c1c(C)[nH]c(=O)[nH]c1=O (stereo not drawn) | > 875 | > 875 | 742 | > 875 | > 875 |  |  | > 875 |  | > 875 |  | 444 |  |  |  |  |  |  |  |  |
| Cc1cccc2c1Sc1ccccc1C2NC(=O)CN(C)C (stereo not drawn) | > 100 | > 100 |  | > 100 | > 100 |  | > 100 | > 100 | > 100 |  |  |  |  |  |  |  |  |  |  |  |
| O=C1C(c2c(O)[nH]c3ccc(Cl)cc23)=Nc2ccccc21 | > 100 | 33.6 | 29.5 | > 81.4 | 17.9 | > 25.9 | > 100 | 7.11 | 20.3 | > 100 | 24.1 | 17.9 |  |  |  |  |  |  |  |  |
| O=S(O)CCCSSSCCCS(=O)O | > 100 | > 100 |  | > 100 | > 100 |  | > 100 | > 100 | > 100 |  |  | > 100 |  |  |  |  |  |  |  |  |
| Cc1ccc(C(C)C)c(OCC(=O)N/N=C/c2c[nH]c3ccc(Br)cc23)c1 | 7 | 23.9 | 27.8 | 9.59 | 4 | 8.06 | 4.63 | 3.42 | 16.5 | 6.6 | 20.2 | 5.92 |  |  |  |  |  |  |  |  |
| CC1(C)N=C(c2ccccc2)SC12S[C@@H]1CCCC[C@H]1S2 | > 100 | > 100 | > 100 | 32.1 | > 100 | > 100 | > 100 | > 100 | > 100 | > 100 | 16.8 | > 100 |  |  |  |  |  |  |  |  |
| CN(C)c1cccc(OC(=O)NCCCl)c1 | > 100 | > 100 | > 100 | > 100 | > 100 |  |  | > 100 |  | > 100 |  | > 100 | 94.6 | > 100 |  |  | > 100 |  |  |  |
| O=C(Sc1n[nH]c(=O)[nH]c1=O)c1cccc2nc3ccccc3nc12 | > 100 | > 100 | > 100 | > 100 | > 100 | 36.2 | > 100 | > 100 | > 100 | > 100 | 77.8 | > 100 |  |  |  |  |  |  |  |  |
| CN(c1ccccc1)c1nc(=[N+]2CCCC2)ss1 | > 100 | > 100 |  | > 100 |  |  | > 100 | 8.85 | > 100 |  |  | > 100 |  |  |  |  |  |  |  |  |
| c1ccc2c(c1)SP1Sc3ccccc3P21 (stereo not drawn) | > 100 | > 100 | > 100 | > 31.6 | > 100 |  |  | > 100 |  | > 100 |  | > 100 |  |  |  |  |  |  |  |  |
| NNC(=O)c1cc([N+](=O)[O-])ccc1NC(=O)C12CC3CC(CC(C3)C1)C2 | 24.9 | > 100 | 51.7 | 21.4 | 50.1 | > 100 | > 100 | 42.2 | 36.1 | 49.2 | 28.8 | 84.3 |  |  |  |  |  |  |  |  |
| COc1cc(NCCC(=O)O)c2ncccc2c1 | > 100 | > 100 | > 100 | > 100 |  |  | > 100 | > 100 | > 100 | > 100 | > 100 | > 100 |  |  |  |  |  |  |  |  |
| Cc1ccc(Nc2nc(=O)c3c([nH]c4ccccc43)s2)cc1 | 53.3 | 35.6 | 25.6 | > 100 | 31.6 | 32.5 | 18.1 |  | 35.4 | 29.9 | 75 | 27.3 |  |  |  |  |  |  |  |  |
| S=c1[nH]n2c(COc3ccc(Cl)cc3)nnc2s1 |  | > 100 | > 100 | > 100 | > 100 | > 100 | > 100 | > 100 | > 100 | > 100 |  | > 100 |  |  |  |  |  |  |  |  |
| c1ccc2c(c1)SCCc1cn[nH]c1-2 | > 100 | > 100 | > 100 | > 100 | > 100 |  |  | > 100 |  | > 100 |  | > 100 |  |  |  |  |  |  |  |  |
| COC(=O)c1sc2c(c1C(=O)OC)C(=NC(C)(C)C)SC2=NC(C)(C)C | 33.5 | 36 | 35.4 | 35.8 | 34.1 | 30.5 | 32.2 | 19.3 | 33.1 | 42.7 | 57.5 | 36.9 |  |  |  |  |  |  |  |  |
| N#C/C(=C\c1ccc([N+](=O)[O-])o1)c1n[nH]c(Cc2ccccc2)n1 | 1.81 | 2.91 | 5.85 | 17.3 | 5.78 | 3 | 3.92 | 2.76 | 4.11 | 12.8 | 21 | 3.01 |  |  |  |  |  |  |  |  |
| COCCNCc1ccc(-c2cc3nccc(Oc4ccc(NC(=O)C5(C(=O)Nc6ccc(F)cc6)CC5)cc4F)c3s2)nc1 | 7.06 |  |  |  |  | 4.51 |  |  |  | 4.25 | 4 | 4.82 | 2.55 |  | 2.06 |  |  | 2.2 | 1.74 | 1.06 |
| CC[C@@H]([C@H](O)c1ccccc1Cl)[N+](=O)[O-] | > 100 | > 100 | > 100 | > 100 | > 100 | > 100 | > 100 | > 100 | > 100 | > 100 | > 100 | > 100 |  |  |  |  |  |  |  |  |
